Data from ChEMBL document CHEMBL5579819, “Dual-target inhibitors of colchicine binding site for cancer treatment” (Eur J Med Chem, 2024).
Values belong to the compound of their own block, whether it stands above or below them.

Assays:
MCF7 [1] = assay: Cytotoxicity against human MCF7 cells assessed as reduction in cell growth incubated for 72 hrs by MTT assay; type: functional, cell-based; conditions: MCF7, 72 h
MCF7 [2] = assay: Cytotoxicity against human MCF7 cells assessed as reduction in cell viability incubated for 24 hrs by MTT assay; type: functional, cell-based; conditions: MCF7, 24 h
HCT-116 = assay: Cytotoxicity against human HCT-116 cells assessed as reduction in cell viability incubated fro 24 hrs by MTT assay; type: functional, cell-based; conditions: HCT-116, 24 h
HepG2 [3] = assay: Cytotoxicity against human HepG2 cells assessed as reduction in cell viability incubated for 24 hrs by MTT assay; type: functional, cell-based; conditions: HepG2, 24 h
[4] = AUC (0 to t) in BALB/c mouse at 50 mg/kg, po measured for 24 hrs by LC-MS/MS analysis; type: ADME, organism-based; conditions: in vivo
[5] = Cmax in BALB/c mouse at 50 mg/kg, po measured for 24 hrs by LC-MS/MS analysis; type: ADME, organism-based; conditions: in vivo
[6] = Metabolic stability in BALB/c mouse liver microsome assessed as half life incubated for 1 hrs by LC-MS/MS analysis; type: ADME; conditions: liver microsomes
[7] = biological target: Triosephosphate isomerase (Homo sapiens, UniProt P60174); assay: Inhibition of TPI (unknown origin)
Tubulin = assay: Inhibition of tubulin polymerization (unknown origin) by fluorescence based assay; type: protein-complex assay, Homo sapiens
COLO 205 = assay: Cytotoxicity against human COLO 205 cells assessed as reduction in cell growth incubated for 24 hrs by SRB assay; type: functional, cell-based; conditions: COLO 205, 24 h
HeLa = assay: Cytotoxicity against human HeLa cells assessed as reduction in cell viability measured for 48 hrs by MTT assay; type: functional, cell-based
SiHa = assay: Cytotoxicity against human SiHa cells assessed as reduction in cell viability measured for 48 hrs by MTT assay; type: functional, cell-based
MCF7 [8] = assay: Cytotoxicity against human MCF7 cells assessed as cell growth inhibition incubated for 24 hrs by MTT assay; type: functional, cell-based; conditions: MCF7, 24 h
A549 [9] = assay: Cytotoxicity against human A549 cells assessed as reduction in cell growth incubated for 24 hrs by MTT assay; type: functional, cell-based; conditions: A549, 24 h
[10] = Selectivity index, ratio of CC50 for cytotoxicity against African green monkey Vero cells to IC50 for cytotoxicity against human HepG2 cells; type: toxicity, cell-based; conditions: Vero cells (CC50) and HepG2 cells (IC50)
HepG2 [11] = assay: Cytotoxicity against human HepG2 cells assessed as reduction in cell growth incubated for 24 hrs by MTT assay; type: functional, cell-based; conditions: HepG2, 24 h
[12] = biological target: Platelet-derived growth factor receptor beta (Homo sapiens, UniProt P09619); assay: Inhibition of human recombinant PDGFRbeta incubated for 40 mins by Kinase-Glo luminescent kinase assay
MCF7 [13] = assay: Cytotoxicity against human MCF7 cells assessed as reduction in cell viability by MTT assay
[14] = biological target: Vascular endothelial growth factor receptor 2 (Homo sapiens, UniProt P35968); assay: Inhibition of VEGFR2 (unknown origin)
MCF7 [15] = assay: Cytotoxicity against human MCF7 cells assessed as reduction in cell growth incubated for 24 hrs by MTT assay; conditions: MCF7, 24 h
Ishikawa = assay: Antiproliferative activity against human Ishikawa cells assessed as reduction in cell growth incuabted for 48 hrs by MTT assay; type: functional, cell-based
Histone deacetylase 2 = Histone deacetylase 2 (Homo sapiens, UniProt Q92769); assay: Inhibition of HDAC2 (unknown origin)
U-937 = assay: Cytotoxicity against human U-937 cells; type: functional, cell-based
A549 [16] = assay: Cytotoxicity against human A549 cells; type: functional, cell-based

Chain of Triosephosphate isomerase (P60174 whole entry): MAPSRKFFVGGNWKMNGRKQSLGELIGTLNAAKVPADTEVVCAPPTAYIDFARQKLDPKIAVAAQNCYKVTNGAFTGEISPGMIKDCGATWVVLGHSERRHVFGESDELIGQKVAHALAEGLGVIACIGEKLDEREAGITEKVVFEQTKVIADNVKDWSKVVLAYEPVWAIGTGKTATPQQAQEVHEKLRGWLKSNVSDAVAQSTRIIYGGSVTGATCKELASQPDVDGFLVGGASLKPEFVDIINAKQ
Chain of Vascular endothelial growth factor receptor 2 (P35968 whole entry): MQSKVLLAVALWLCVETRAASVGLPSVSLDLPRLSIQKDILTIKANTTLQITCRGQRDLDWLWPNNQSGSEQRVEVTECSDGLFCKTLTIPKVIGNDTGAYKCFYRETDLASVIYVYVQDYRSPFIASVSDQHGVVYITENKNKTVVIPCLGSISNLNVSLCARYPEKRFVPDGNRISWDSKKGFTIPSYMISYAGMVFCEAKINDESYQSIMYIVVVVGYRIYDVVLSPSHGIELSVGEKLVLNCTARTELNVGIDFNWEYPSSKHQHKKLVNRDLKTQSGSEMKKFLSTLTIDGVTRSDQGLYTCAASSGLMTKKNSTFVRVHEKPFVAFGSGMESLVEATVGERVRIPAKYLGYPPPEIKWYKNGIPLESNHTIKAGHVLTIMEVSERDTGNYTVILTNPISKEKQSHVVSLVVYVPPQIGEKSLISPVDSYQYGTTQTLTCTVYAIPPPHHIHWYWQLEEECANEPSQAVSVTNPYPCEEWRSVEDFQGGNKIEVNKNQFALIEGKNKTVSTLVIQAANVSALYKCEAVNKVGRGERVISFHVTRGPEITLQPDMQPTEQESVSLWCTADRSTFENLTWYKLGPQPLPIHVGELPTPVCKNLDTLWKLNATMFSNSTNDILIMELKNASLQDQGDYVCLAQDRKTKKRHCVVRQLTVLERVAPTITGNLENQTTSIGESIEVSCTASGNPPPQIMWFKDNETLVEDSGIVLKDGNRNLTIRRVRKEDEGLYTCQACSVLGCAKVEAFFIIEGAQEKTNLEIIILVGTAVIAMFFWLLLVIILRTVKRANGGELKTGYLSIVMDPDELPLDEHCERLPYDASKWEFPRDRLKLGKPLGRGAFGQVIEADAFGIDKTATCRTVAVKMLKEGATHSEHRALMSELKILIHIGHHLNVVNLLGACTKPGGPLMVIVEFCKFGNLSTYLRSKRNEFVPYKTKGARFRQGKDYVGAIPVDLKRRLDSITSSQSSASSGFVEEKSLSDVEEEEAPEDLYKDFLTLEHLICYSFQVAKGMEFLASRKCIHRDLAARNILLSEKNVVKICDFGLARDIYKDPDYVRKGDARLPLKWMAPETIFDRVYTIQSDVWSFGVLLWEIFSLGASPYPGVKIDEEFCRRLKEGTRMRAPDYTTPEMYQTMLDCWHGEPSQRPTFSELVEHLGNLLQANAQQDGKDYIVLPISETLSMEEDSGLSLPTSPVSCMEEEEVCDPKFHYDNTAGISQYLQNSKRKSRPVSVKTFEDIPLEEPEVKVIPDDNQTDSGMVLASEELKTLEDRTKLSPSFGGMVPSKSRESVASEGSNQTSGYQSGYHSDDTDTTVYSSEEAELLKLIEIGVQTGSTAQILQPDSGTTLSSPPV
Chain of Histone deacetylase 2 (Q92769 whole entry): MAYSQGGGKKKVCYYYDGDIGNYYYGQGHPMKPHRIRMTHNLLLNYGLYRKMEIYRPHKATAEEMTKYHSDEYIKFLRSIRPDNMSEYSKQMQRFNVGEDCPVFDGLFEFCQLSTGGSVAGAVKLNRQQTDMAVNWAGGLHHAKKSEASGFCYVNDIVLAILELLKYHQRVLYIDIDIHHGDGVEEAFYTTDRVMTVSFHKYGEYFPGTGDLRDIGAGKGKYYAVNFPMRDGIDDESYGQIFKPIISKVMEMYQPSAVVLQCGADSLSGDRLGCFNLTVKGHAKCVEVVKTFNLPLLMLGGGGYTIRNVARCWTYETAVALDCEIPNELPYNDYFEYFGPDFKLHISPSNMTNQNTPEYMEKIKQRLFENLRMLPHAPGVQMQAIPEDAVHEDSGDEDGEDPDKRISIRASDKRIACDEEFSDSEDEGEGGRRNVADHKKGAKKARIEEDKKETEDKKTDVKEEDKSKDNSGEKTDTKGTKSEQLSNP
Chain of Platelet-derived growth factor receptor beta (P09619 whole entry): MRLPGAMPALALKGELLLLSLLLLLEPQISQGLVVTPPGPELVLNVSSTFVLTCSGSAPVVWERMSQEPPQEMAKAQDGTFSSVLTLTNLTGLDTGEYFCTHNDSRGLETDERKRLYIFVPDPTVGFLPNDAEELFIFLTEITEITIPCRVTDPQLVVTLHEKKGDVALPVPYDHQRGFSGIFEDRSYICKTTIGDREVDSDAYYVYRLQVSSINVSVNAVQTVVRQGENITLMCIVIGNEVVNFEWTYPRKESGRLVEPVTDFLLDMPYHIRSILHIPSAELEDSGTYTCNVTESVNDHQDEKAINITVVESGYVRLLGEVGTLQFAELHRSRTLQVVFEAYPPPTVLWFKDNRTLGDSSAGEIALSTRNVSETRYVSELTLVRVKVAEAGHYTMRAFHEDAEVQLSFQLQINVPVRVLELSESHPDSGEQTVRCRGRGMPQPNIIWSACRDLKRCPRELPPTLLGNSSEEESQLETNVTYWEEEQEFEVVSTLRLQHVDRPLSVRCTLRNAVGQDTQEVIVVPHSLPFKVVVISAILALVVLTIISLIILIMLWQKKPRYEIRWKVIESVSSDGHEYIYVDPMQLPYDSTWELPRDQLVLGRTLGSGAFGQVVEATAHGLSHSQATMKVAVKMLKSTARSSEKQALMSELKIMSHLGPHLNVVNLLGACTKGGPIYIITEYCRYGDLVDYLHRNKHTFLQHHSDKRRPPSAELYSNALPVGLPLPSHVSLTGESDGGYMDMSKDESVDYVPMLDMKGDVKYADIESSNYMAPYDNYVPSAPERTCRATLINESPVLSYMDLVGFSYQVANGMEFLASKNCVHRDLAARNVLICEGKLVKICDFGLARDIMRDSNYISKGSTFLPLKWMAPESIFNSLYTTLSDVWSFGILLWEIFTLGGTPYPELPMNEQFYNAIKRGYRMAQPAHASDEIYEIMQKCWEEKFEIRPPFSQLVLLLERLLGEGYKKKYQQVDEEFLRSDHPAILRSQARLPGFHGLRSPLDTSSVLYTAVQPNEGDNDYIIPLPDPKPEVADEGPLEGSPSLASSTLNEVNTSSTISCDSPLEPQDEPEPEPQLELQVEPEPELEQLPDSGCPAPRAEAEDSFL

SMILES: Nc1ccccc1NC(=O)c1ccc(CN2CCC/C(=C\c3cccc(Cl)c3)C2=O)cc1
IC50 (MCF7 [1]): 2100 nM

SMILES: CCOCCSc1nc(-c2ccccc2Cl)nn1CCOCC
IC50 (MCF7 [2]): 5.16 µM | IC50 (HCT-116): 3.36 µM | IC50 (HepG2 [3]): 1300 nM

SMILES: COc1cc2oc(C(=O)c3cc(OC)c(OC)c(OC)c3)cc2cc1/C=C/C(=O)O
IC50 (HeLa): 1060 nM | IC50 (SiHa): 1100 nM

SMILES: CN(C)c1ccc(/C=N/c2c(N)n(C)c(=O)[nH]c2=O)cc1
IC50 (MCF7 [8]): 3.17 µM | IC50 (A549 [9]): 1530 nM | selectivity ratio [10]: 3.74 | IC50 (HepG2 [11]): 1070 nM | IC50 [7]: 1900 nM

Continued, in another order:

AUC(0-t) at 24 h [4]: 87600 ng·h/mL | Cmax [5]: 12200 ng/mL | half-life [6]: 257 min | IC50 [7]: 990 nM
SMILES: CCOC(=O)Nc1nc2ccc(-c3cc(Cc4n[nH]c(=O)c5ccccc45)ccc3F)cc2[nH]1

IC50 (Tubulin): 1660 nM
SMILES: COc1cc(OC)c(/C=C2/C(=O)Nc3cc(Cl)ccc32)c(OC)c1
IC50 (COLO 205): 200 nM

IC50 [12]: 3.18 µM | IC50 [14]: 5.75 µM | IC50 [7]: 7990 nM
SMILES: O=C1Nc2ccccc2/C1=C/c1ccc(OCC(=O)c2ccc(Br)cc2)cc1
IC50 (MCF7 [13]): 14.8 µM | IC50 (MCF7 [15]): 14.8 µM

IC50 [7]: 1400 nM
SMILES: O=c1cc(-c2ccc(F)cc2)oc2cc(-c3ccoc3)ccc12
IC50 (Ishikawa): 1000 nM

IC50 (Histone deacetylase 2): 60 nM
SMILES: COc1cc2c(cc1OCc1ccc(C(=O)Nc3ccccc3N)cc1)CC[C@@H]1[C@@H]2CC[C@]2(C)[C@@H](O)CC[C@@H]12
IC50 (U-937): 371 nM | IC50 (A549 [16]): 1780 nM
